Experimental data published in patent US8815919B2, “Oxadiazole derivatives” (Merck Serono SA, priority 2009, dated 2014).
Structures can show the parent of a compound that is named as a salt. Where two headings read alike, the source gives them in different places.

Legend:
[1] = biological target: T1, S1P1 (Homo sapiens, UniProt P21453); experiment: Receptor binding assay, [33P]sphingosine 1-phosphate competition, S1P1 membranes, WGA SPA beads
Procedure: (§1) Membranes were prepared from CHO cells expressing S1P1 or S1P3 for use in ligand and […] binding studies. Cells were suspended in 50 mM TRIS, pH 7.4, 2 mM EDTA, 250 mM Sucrose (buffer A) and 1× Complete protease inhibitor cocktail (Roche), and disrupted at 4° C. by N2 decompression using a cell disruption bomb (Parr Instrument). Following centrifugation at 1000 RPM for 10 min at 4° C., the supernatant was diluted (2×) in buffer A and centrifuged again at 19000 RPM for 75 min at 4° C. The pellet was then suspended in 10 mM HEPES, pH 7.4, 1 mM EDTA, 250 mM Sucrose (Buffer B), and 1× Complete EDTA-free protease inhibitor cocktail and homogenized using a potter. Membranes were flash frozen in liquid N2 and stored at −80° C.
(§2) Receptor binding assay: [33P]sphingosine 1-phosphate (3000 Ci/mmol; American Radiolabeled Chemicals, Inc.) was added to test compounds in 20% DMSO by competition. Membranes and WGA SPA beads (GE Healthcare) were added to give a final volume of 100 μl in 96-well plates or 50 μl in 384-well plates with assay concentrations of […] [33P]sphingosine 1-phosphate (respectively for S1P1 or S1P3), 50 mM HEPES, pH 7.5, 5 mM MgCl2, 100 mM NaCl, 0.4% fatty acid-free BSA, 1-5 μg/well of proteins in 96-well plates vs 0.6-1 μg/well of proteins in 384-well plates and 100 μg/well of WGA SPA beads in 96-well plates vs 75 μg/well of WGA SPA beads in 384-well plates. Binding was performed for 60 min at RT on a shaker and bound radioactivity was measured on a PerkinElmer 1450 MicroBeta counter. Triplicate samples were averaged and normalized as percentage of inhibition relative to total binding (only DMSO in well) and nonspecific binding (1000-fold excess of unlabeled S1P). Binding data were analyzed using the GraphPad Prism program or Genedata software.
Target sequence in this assay (P21453 whole entry, species assumed): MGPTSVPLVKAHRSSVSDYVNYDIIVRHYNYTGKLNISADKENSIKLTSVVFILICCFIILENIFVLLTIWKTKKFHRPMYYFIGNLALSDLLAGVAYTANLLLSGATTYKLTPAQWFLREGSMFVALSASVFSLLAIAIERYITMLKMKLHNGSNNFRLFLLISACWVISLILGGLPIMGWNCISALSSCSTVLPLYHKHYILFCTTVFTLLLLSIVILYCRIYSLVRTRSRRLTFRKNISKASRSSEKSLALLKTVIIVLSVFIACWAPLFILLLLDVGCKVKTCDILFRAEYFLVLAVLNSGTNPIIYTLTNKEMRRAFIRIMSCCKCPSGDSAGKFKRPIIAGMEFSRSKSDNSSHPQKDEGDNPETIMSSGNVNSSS

[2] = biological target: S1P3 (Homo sapiens, UniProt Q99500); experiment: Receptor binding assay, [33P]sphingosine 1-phosphate competition, S1P3 membranes, WGA SPA beads
Procedure: as §1, §2

[3] = biological target: T1, S1P1; experiment: S1P1 internalization assay in S1P1-U2OS cells (S1P1-EGFP), cell imaging; type: cell-based; parameters: host or cells: U2OS (human bone osteosarcoma epithelial cells), CMV promoter, geneticin selection; conditions: 1 hour incubation
Procedure: Cellular functional assays: Internalization of Sphingosine-1-phosphate receptor 1 (S1P1) in a human Cell line (U2OS) in a 384-well format using a Cell Imaging analysis. • Jo, E.; Sanna, M. G.; Gonzalez-Cabrera, P. J.; Thangada, S.; Tigyi, S.; Osborne, D. A.; Hla, T.; Parrill, A. L.; Rosen, H. Chem. Biol. 2005, 12, 703
The S1P1 internalization assay was performed in 384 well plates (Corning® 384 black with clear bottom 3712) using S1P1-U2OS cells from Biolmage (C039A), a human epithelial cell line (Human Bone Osteosarcoma Epithelial Cells). These cells expressed the human S1P1 Receptor fused to the green fluorescent protein (EGFP). A standard CMV promoter (cytomegalovirus promoter) controls the expression of S1P1-EGFP and continuous expression was maintained by addition of geneticin to the culture medium.
S1P1 Receptor desensitization induced the internalization of the membrane-localized S1P1-EGFP fusion protein to endosomes, which can be monitored by cell imaging analysis. The cells are plated in low serum medium (Dulbecco's Modified Eagle Medium (DMEM) with Glutamax-1 and high glucose, 1% Penicillin/Streptomycin, 1% Fetal Calf Serum (FCS), 0.5 mg/ml Geneticin) overnight.
The next day, S1P1-U2OS cells are incubated in 20 μl serum free medium (DMEM with Glutamax-1 and high glucose, 0.1% of fatty-acid free Bovin Serum Albumin (BSA), 10 mM, N′-2-Hydroxyethylpiperazine-N′-2 ethanesulphonic acid (HEPES) 1M) for 2 hours at 37° C./5% CO2. The cells are then treated with 4 μl compounds/agonists (6×/3% DMSO) for a total volume of 24 μl, and plates are incubated for 1 hour at 37° C./5% CO2.
S1P1-U2OS cells are fixed with 25 μl Paraformaldehyde 8% and stained with Hoechst 33345 dye (1:1000) for 20 minutes.
They were then washed 3 times with Phosphate Buffered Saline (PBS) and plates are sealed. The internalization of the receptor S1P1-EGFP is measured on Cellomics by calculating the “spot count per object” (“object” corresponds to nuclear and “spot” corresponds to S1P1-EGFP receptor). Internalization data were observed thanks to vHCS View and analyzed using Genedata® software.
Target sequence in this assay (P21453 whole entry): as the sequence (P21453 whole entry, species assumed) above

[4] = 96 well-plate, read-out: S1P1 binding Ki (M) (96 well-plate)
[5] = 96 well-plate, read-out: S1P3 binding Ki (M) (96 well-plate)
[6] = 384 well-plate, read-out: S1P1 binding Ki (M) (384 well-plate)
[7] = 384 well-plate, read-out: S1P3 binding Ki (M) (384 well-plate)

S1P3, sequence (Q99500 whole entry, species assumed): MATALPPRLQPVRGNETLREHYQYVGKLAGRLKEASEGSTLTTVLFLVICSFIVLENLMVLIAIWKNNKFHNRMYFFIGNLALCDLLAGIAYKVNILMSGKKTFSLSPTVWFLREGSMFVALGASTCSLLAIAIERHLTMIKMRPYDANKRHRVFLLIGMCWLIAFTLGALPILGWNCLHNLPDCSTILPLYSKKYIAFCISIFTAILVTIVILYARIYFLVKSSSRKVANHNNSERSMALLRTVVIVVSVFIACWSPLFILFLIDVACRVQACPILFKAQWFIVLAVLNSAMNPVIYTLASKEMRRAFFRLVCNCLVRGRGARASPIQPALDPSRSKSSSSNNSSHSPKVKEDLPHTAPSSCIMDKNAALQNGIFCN

Row | Compound | Ki [1, 4] | Ki [2, 5] | EC50 [3] | Ki [1, 6] | Ki [2, 7]
1 | COCc1cc(-c2nc(-c3cc(F)cc(CN(C)CC(=O)O)c3)no2)ccc1-c1ccccc1 [Example 76] | 1.81e-10 M | 1.09e-08 M | 5.36 nM | – | –
2 | CCCN(CC(=O)O)Cc1cccc(-c2noc(-c3ccc(-c4ccccc4C)c(COC)c3)n2)c1 [Example 77, N-(3-{5-[2-(methoxymethyl)-2′-methylbiphenyl-4-yl]-1,2,4-oxadiazol-3-yl}benzyl)-N-propylglycine, hydrochloride salt] | 1.58e-09 M | 6.05e-07 M | 52.6 nM | 9.83e-10 M | –
3 | CCN(CC(=O)O)Cc1cccc(-c2noc(-c3ccc(-c4ccccc4C)c(COC)c3)n2)c1 [Example 78, N-ethyl-N-(3-{5-[2-(methoxymethyl)-2′-methylbiphenyl-4-yl]-1,2,4-oxadiazol-3-yl}benzyl)glycine, hydrochloride salt] | 4.41e-10 M | 1.5e-07 M | 34.3 nM | 2.47e-09 M | 3.54e-07 M
4 | COCc1cc(-c2nc(-c3ccc(CN(C)CC(=O)O)c(OC)c3)no2)ccc1-c1ccccc1C [Example 79, 2-((2-methoxy-4-(5-(2-(methoxymethyl)-2′-methylbiphenyl-4-yl)-1,2,4-oxadiazol-3-yl)benzyl)(methyl)amino)acetic acid, hydrochloride salt] | 2.69e-09 M | 4.84e-06 M | 47.7 nM | 5.33e-09 M | –
5 | COc1cc(-c2noc(-c3ccc(N4CCCCC4C)c(C(F)(F)F)c3)n2)ccc1CN(C)CC(=O)O (stereo not drawn) [Example 80, 2-((2-methoxy-4-(5-(4-(2-methylpiperidin-1-yl)-3-(trifluoromethyl)phenyl)-1,2,4-oxadiazol-3-yl)benzyl)(methyl)amino)acetic acid, hydrochloride salt] | 1.6e-09 M | 2.79e-06 M | 47 nM | 3.12e-09 M | –
6 | COCc1cc(-c2nc(-c3ccc(CNCC(=O)O)c(F)c3)no2)ccc1-c1ccccc1F [Example 82, N-(2-fluoro-4-{5-[2′-fluoro-2-(methoxymethyl)biphenyl-4-yl]-1,2,4-oxadiazol-3-yl}benzyl)glycine, hydrochloride salt] | 5.42e-11 M | 4.66e-08 M | 1.73 nM | 3.74e-10 M | 5.24e-08 M
7 | COCc1cc(-c2nc(-c3ccc(CNCC(=O)O)c(F)c3)no2)ccc1-c1ccccc1C [Example 83, N-(2-fluoro-4-{5-[2-(methoxymethyl)-2′-methylbiphenyl-4-yl]-1,2,4-oxadiazol-3-yl}benzyl)glycine, hydrochloride salt] | 7.39e-11 M | 1.01e-07 M | 1.2 nM | 1.8e-10 M | 2.75e-07 M
8 | Cc1ccccc1-c1ccc(-c2nc(-c3ccc(CNCCC(=O)O)cc3)no2)cc1C(F)(F)F [Example 84] | 1.43e-10 M | 1.56e-07 M | 1.55 nM | 3.77e-10 M | 1.73e-07 M
9 | CC1CCCCN1c1ccc(-c2nc(-c3ccc(CN(C)CC(=O)O)c(F)c3)no2)cc1C(F)(F)F (stereo not drawn) [Example 85, N-(2-fluoro-4-{5-[4-(2-methylpiperidin-1-yl)-3-(trifluoromethyl)phenyl]-1,2,4-oxadiazol-3-yl}benzyl)-N-methylglycine, dihydrochloride salt] | 3.16e-10 M | 1.77e-07 M | 13.6 nM | 9.74e-10 M | –
10 | COCc1cc(-c2nc(-c3cccc(CCN(C)CC(=O)O)c3)no2)ccc1-c1ccccc1C [Example 86, [(2-{3-[5-(2-Methoxymethyl-2′-methyl-biphenyl-4-yl)-[1,2,4]oxadiazol-3-yl]-phenyl}-ethyl)-methyl-amino]-acetic acid] | 1.46e-10 M | 3.18e-08 M | 4.98 nM | 4.97e-10 M | –
11 | COCc1cc(-c2nc(-c3ccc(CCN(C)CC(=O)O)cc3)no2)ccc1-c1ccccc1C [Example 87, [(2-{4-[5-(2-Methoxymethyl-2′-methyl-biphenyl-4-yl)-[1,2,4]oxadiazol-3-yl]-phenyl}-ethyl)-methyl-amino]-acetic acid] | 4.23e-10 M | 4.2e-07 M | 13.6 nM | 9.45e-10 M | 3.85e-07 M
12 | COCc1cc(-c2nc(-c3ccc(CN(C)CC(=O)O)cc3)no2)ccc1-c1cccc(F)c1C [Example 90, N-(4-{5-[3′-fluoro-2-(methoxymethyl)-2′-methylbiphenyl-4-yl]-1,2,4-oxadiazol-3-yl}benzyl)-N-methylglycine, hydrochloride salt] | 2.78e-10 M | 5.45e-07 M | 4.46 nM | 8.65e-10 M | 8.49e-07 M
13 | COCc1cc(-c2nc(-c3ccc(CN(C)CC(=O)O)c(F)c3)no2)ccc1-c1cccc(F)c1C [Example 91, N-(2-fluoro-4-{5-[3′-fluoro-2-(methoxymethyl)-2′-methylbiphenyl-4-yl]-1,2,4-oxadiazol-3-yl}benzyl)-N-methylglycine, hydrochloride salt] | 1.63e-10 M | 2e-07 M | 5.53 nM | 1.13e-09 M | 3.35e-07 M
14 | CCOc1cc(-c2nc(-c3ccc(CN(C)CC(=O)O)c(F)c3)no2)ccc1-c1ccccc1C [Example 92, N-{4-[5-(2-ethoxy-2′-methylbiphenyl-4-yl)-1,2,4-oxadiazol-3-yl]-2-fluorobenzyl}-N-methylglycine, hydrochloride salt] | 1.72e-10 M | 9.91e-08 M | 7.91 nM | – | –
15 | COCc1cc(-c2nc(-c3cc(Cl)cc(CN(C)CC(=O)O)c3)no2)ccc1-c1ccccc1C [Example 93, N-(3-chloro-5-{5-[2-(methoxymethyl)-2′-methylbiphenyl-4-yl]-1,2,4-oxadiazol-3-yl}benzyl)-N-methylglycine, hydrochloride salt] | 3.96e-10 M | 9.4e-08 M | 26.5 nM | – | –
16 | COCc1cc(-c2nc(-c3ccc(CN(C)CC(=O)O)cc3C)no2)ccc1-c1ccccc1C [Example 102, 2-((4-(5-(2-(methoxymethyl)-2′-methylbiphenyl-4-yl)-1,2,4-oxadiazol-3-yl)-3-methylbenzyl)(methyl)amino)acetic acid] | – | 2.9e-07 M | 13.7 nM | 1.44e-09 M | 6.99e-07 M
17 | COCc1cc(-c2nc(-c3ccc(CNCC(=O)O)cc3C)no2)ccc1-c1ccccc1C [Example 106, 2-(4-(5-(2-(methoxymethyl)-2′-methylbiphenyl-4-yl)-1,2,4-oxadiazol-3-yl)-3-methylbenzylamino)acetic acid] | – | 1.59e-07 M | 4.12 nM | 4.66e-10 M | 2.96e-07 M
18 | Cc1cc(CNCC(=O)O)ccc1-c1noc(-c2ccc(-c3ccccc3C)c(C(F)(F)F)c2)n1 [Example 107, 2-(3-methyl-4-(5-(2′-methyl-2-(trifluoromethyl)biphenyl-4-yl)-1,2,4-oxadiazol-3-yl)benzylamino)acetic acid] | – | – | 2.84 nM | 4.79e-10 M | 2.12e-07 M
